Experimental data as given in patent US12447156B2, “Treating progressive familial intrahepatic cholestasis (PFIC) with IBAT inhibitors” (ALBIREO AB, priority 2020, dated 2025).

Tests used:
children with PFIC = test: PEDFIC 1: treatment responders in analysis of pretreatment serum bile acid parameters; type: in vivo, human
Protocol: This analysis included children with PFIC aged 0.5-18 years with elevated sBAs and history of significant pruritus who were treated with odevixibat 40 μg/kg/day (n=23) or 120 μg/kg/day (n=19) in […] 1. Pretreatment sBA composition was analyzed using liquid chromatography-tandem mass spectrometry, quantifying serum concentrations of total BAs and primary (cholate, chenodeoxycholate) and secondary (deoxycholate, lithocholate) BAs. sBA concentrations are presented below including and excluding the contribution from ursodeoxycholate (UDCA). Pretreatment serum concentrations of 7α-hydroxy-4-cholesten-3-one (C4) were also quantified. Pretreatment parameters were analysed in treatment responders (Rs; i.e., patients with sBAs≤70 μmol/L or reduced ≥70% and/or a ≥1-point drop in observer-reported pruritus score from baseline to end of treatment) vs nonresponders (NRs).

patients with PFIC = test: Pooled PEDFIC 1/2 (up to 72 weeks): serum bile acids, pruritus and sleep parameters, correlations, responders; type: in vivo, human
Protocol: Methods: PEDFIC 1 was a randomized, double-blind study in children with PFIC1 or PFIC2; patients received either once-daily placebo, odevixibat 40 μg/kg, or odevixibat 120 μg/k g for 24 weeks. PEDFIC 2 is an ongoing, 72 week extension study in patients with any type of PFIC in which all patients receive odevixibat 120 μg/kg/day. In both PEDFIC 1 and PEDFIC 2, eligible patients had elevated serum bile acids and significant pruritus at screening. Here, patient pruritus and sleep-related data (including tiredness during the day) were included, which were evaluated twice daily by caregivers using the validated PRUCISION scale via an electronic diary. Pruritus and tiredness responses range from 0 to 4, with higher scores indicating worse symptoms; other sleep assessments include questions with Yes/No response s. Correlations between percentage change from baseline in serum bile acids and change from baseline in observer-reported diary data (pruritus, sleep characteristics) were assessed as post hoc analyses and are summarized with Pearson coefficient s (r).

## CCCCC1(CCCC)CN(c2ccccc2)c2cc(SC)c(OCC(=O)N[C@@H](C(=O)N[C@@H](CC)C(=O)O)c3ccc(O)cc3)cc2S(=O)(=O)N1 [Odevixibat, 1,1-dioxo-3,3-dibutyl-5-phenyl-7-methylthio-8-(N-{(R)-α-[N-((S)-1-carboxypropyl)carbamoyl]-4-hydroxybenzyl}carbamoylmethoxy)-2,3,4,5-tetrahydro-1,2,5-benzothiadiazepine]
Children with PFIC; PEDFIC 1, 40 μg/kg/day
  proportion of treatment responders (sBAs ≤70 μmol/L or reduced ≥70% and/or ≥1-point drop in pruritus score): 16/23
Children with PFIC; PEDFIC 1, dose groups combined, 24/42
  proportion of treatment responders (sBAs ≤70 μmol/L or reduced ≥70% and/or ≥1-point drop in pruritus score): 57%
Patients with PFIC; pooled PEDFIC 1/2, 18/84 patients
  overall incidence of any event of diarrhea: 21%
Patients with PFIC; pooled PEDFIC 1/2, 71 of 84 patients, up to 72 weeks
  patients with any TEAE: 85%
Patients with PFIC; pooled PEDFIC 1/2, 84 patients
  TEAEs mild or moderate in severity: 90%
  serious drug-related TEAEs or deaths: No serious drug-related TEAEs or deaths occurred
Patients with PFIC; pooled PEDFIC 1/2, during odevixibat treatment (up to 72 weeks)
  patients who met criteria for serum bile acid response: approximately 40%
Patients with PFIC; pooled PEDFIC 1/2, n 32, baseline 246 μmol/L
  Serum bile acids, Change From Baseline to Weeks 49-72, Mean: −53% (9%)
Patients with PFIC; pooled PEDFIC 1/2, n 34, baseline 2.3
  Tiredness score, Change From Baseline to Weeks 49-72, Mean (SE): −1.2 (0.2)
Patients with PFIC; pooled PEDFIC 1/2, n 34, baseline 2.8
  Pruritus score, Change From Baseline to Weeks 49-72, Mean (SE): −1.5 (0.2)
Patients with PFIC; pooled PEDFIC 1/2, n 34, baseline 8
  Number of awakenings, Change From Baseline to Weeks 49-72, Mean (SE): −7 (3)
Patients with PFIC; pooled PEDFIC 1/2, n 34, baseline 24
  Days taking medications to induce sleep, Change From Baseline to Weeks 49-72, Mean (SE): −3 (4) %
Patients with PFIC; pooled PEDFIC 1/2, n 34, baseline 38
  Days with scratching associated with bleeding, Change From Baseline to Weeks 49-72, Mean (SE): −21 (7) %
Patients with PFIC; pooled PEDFIC 1/2, n 34, baseline 67
  Days patient slept with caregiver, Change From Baseline to Weeks 49-72, Mean (SE): −38 (8) %
Patients with PFIC; pooled PEDFIC 1/2, n 34, baseline 75
  Days patient needed soothing, Change From Baseline to Weeks 49-72, Mean (SE): −48 (9) %
Patients with PFIC; pooled PEDFIC 1/2, n 34, baseline 78
  Days patient needed help falling asleep, Change From Baseline to Weeks 49-72, Mean (SE): −55 (8) %
Patients with PFIC; pooled PEDFIC 1/2, up to 72 weeks
  patients achieving a treatment response (serum bile acid and/or pruritus criteria): approximately 60%
Patients with PFIC; up to 72 weeks of odevixibat treatment
  tolerability: generally well tolerated
